# Measurements from patent US6682931B2, “Recovering cryopreserved conifer embryogenic cultures” (MeadWestvaco Corporation, priority 1999, dated 2004).
# Marks after values point to notes of the source that are not given here.
# Legend:
# Assay type in all cases: cell-based
# [1] = test system: loblolly pine embryogenic cell lines; assay: Yield of stage 3 somatic embryos from embryogenic cultures retrieved from cryopreservation (Example 4); settings: for Total Number of Somatic Embryos Harvested: recovered on 30 mg/l ABA, nine weeks on embryo development medium
# Excerpt: The purpose of this experiment was to determine whether addition of ABA to the post-cryopreservation culture medium improved the yield of somatic embryos harvested from the cultures after they were retrieved from cryogenic storage. The six loblolly pine cell lines retrieved from cryogenic storage in Example 1 were used in this experiment. Embryogenic tissue from each cell line was dispersed onto nylon membranes using liquid DCR1 medium (formulation in Table 1 without the GELRITE). Four ml of embryogenic culture retrieved from cryogenic storage of each cell line and treatment (both the no ABA and the 30 mg/l ABA post-cryopreservation recovery medium) was added to 5 ml of liquid DCR1 medium and dispersed by agitation. One ml aliquots of the suspension were dispensed using a sterile 5-ml pipette with a cotton plug. Each 1 ml aliquot was transferred to the surface of a sterile 4 cm nylon membrane positioned on top of two sterile Whatman No. 2 filter papers in the bottom of an empty 15×100 mm sterile plastic culture plate. The nylon membranes with the dispersed embryogenic cultures were placed on either DCR1 medium containing 30 mg/l ABA or the same medium without any ABA depending on their respective post-cryopreservation recovery medium treatments from which they were derived. […] The tissue on the nylon membranes was cultured for 5-6 days at 23° C. in the dark to induce proliferation from the newly dispersed cultures. The nylon membranes with tissue were then transferred to an embryo development medium (see Table IV below) as described in U.S. Pat. No. 5,731,204 (Rutter et al.), to test the yield of stage 3 cotyledonary somatic embryos. The plates with membranes containing the embryogenic cultures were incubated in the dark at 23° C. The nylon membranes with the embryogenic cultures were transferred to new plates containing the same fresh embryo development medium every three weeks. After a total of nine weeks, the number of stage 3 embryos was counted on each membrane, and the data were analyzed using SAS GLM ANOVA statistical software.
# [2] = test system: loblolly pine cell lines (G-05, K-12, E-117 and O-72); assay: Mean culture fresh weight of embryogenic cultures retrieved from cryopreservation on post-cryopreservation recovery medium (Example 3); settings: for % Increase of average culture fresh weight over control without ABA: all seven cell lines; for Mean Culture Fresh Weight, average of cell lines: average of all seven cell lines (loblolly and pitch×loblolly hybrid); for Mean Culture Fresh Weight: 28 days after retrieval
# Excerpt: (§1) Five different pine embryogenic cell lines chosen at random from a long-term cryogenic storage bank were initiated, grown as liquid embryogenic suspension cultures, and cryopreserved via the methods described in Examples 1 and 2. The five cell lines included: one pitch×loblolly pine interspecies hybrid cell line (AA-24) and four loblolly pine cell lines (G-05, K-12, E-117 and O-72). Also, two additional pitch×loblolly pine F1 hybrid cell lines (Q-01 and Q-39) were initiated, grown as liquid embryogenic suspension cultures, and cryopreserved via the methods described in Examples 1 and 2 except that the initiation and maintenance media contained 10.0 mg/l of ABA (as taught in U.S. Pat. No. 5,856,191). The seven cell lines were retrieved from cryogenic storage, thawed, and transferred, via the procedure described in Example 2. Each cell line was subjected to three post-cryopreservation medium treatments. The first treatment was a control (i.e., DCR1 medium without ABA), the second treatment was DCR1 medium with 10 mg/l of ABA, and the third treatment was DCR1 medium with 30 mg/l of ABA. There were four plates (each derived from an individual cryogenic vial) per treatment and cell line.
# (§2) The embryogenic cultures on membranes were transferred after 24 hours from the temporary recovery medium onto the post-cryopreservation medium and thereafter, every 14 days to a new plate of the same post-cryopreservation medium. The culture environment during post-cryopreservation recovery and growth was 23° C. in the dark. At 28 days after retrieval from cryogenic storage the final fresh weight of the proliferating embryogenic culture was measured. The data were analyzed using the SAS GLM ANOVA statistical software program (Release 6.12 commercially available from the SAS Institute, Inc.), and the results are shown in Table III below.
# [3] = test system: pitch×loblolly pine interspecies hybrid cell lines (AA-24, Q-01, Q-39); assay: as above
# Excerpt: as §1, §2
# [4] = test system: loblolly pine (Pinus taeda) embryogenic cell lines; assay: Percent increase in fresh weight of pine embryogenic cell lines retrieved from cryopreservation on post-cryopreservation recovery medium (Examples 1 and 2); settings: DCR1 + 30 mg/l ABA, 26 days after retrieval
# [5] = test system: loblolly pine (Pinus taeda) embryogenic cell lines; assay: as above; settings: for Additional Culture Growth on DCR1 + ABA: 30 mg/l ABA vs medium without ABA
# Experimental: Each embryogenic culture was cryopreserved as follows. Embryogenic tissue (7 to 14 days since the last subculture) was dispersed in liquid DCR1 medium (the DCR1 medium of Table I without the GELRITE) which contained 0.4 molar sorbitol as described in U.S. Pat. No. 5,506,136. The amount of embryogenic tissue used was sufficient to result in a 40% suspension (i.e., 4 ml volume of embryogenic tissue added to 6 ml of liquid medium). An Erlenmeyer flask containing the suspension was incubated for 24 hours in the dark on a gyrotory shaker (100 rpm), and then placed on ice. Five aliquots of the cryoprotective chemical dimethyl sulfoxide (DMSO) were aseptically added to the suspension to bring the final concentration of DMSO to 10% (vol/vol). One milliliter aliquots of the suspension containing DMSO were then transferred to 2 ml NALGENE® cryogenic vials (manufactured by the Nalge Co.), placed in programmable freezer (Model 9000 manufactured by Gordinier Electronics) and cooled to −35° C. at a rate of 0.33° C. per minute. The cultures were cryopreserved by immersing the cryogenic vials in liquid nitrogen inside a cryogenic storage tank (Model #CY50945 manufactured by Thermolyne, Inc.). The cultures remained in cryogenic storage for at least 36 months prior to retrieval.
# The cryogenic vials were retrieved from the cryogenic storage tank and placed in 44° C. water until the ice crystals in the frozen embryogenic cultures were melted. The thawed culture from each cryogenic vial was aseptically pipetted and dispensed onto a sterile 7 cm×7 cm NITEX nylon 35 μm pore size membrane (commercially available from Sefar, Inc.) which had been placed on top of two sterile filter papers (Whatman no. 2 commercially available from Whatman International Ltd.) to absorb excess liquid from the culture and membrane. Each nylon membrane containing embryogenic culture was then transferred to a DCR1 medium which served as a temporary recovery medium for 24 hours in order to lower the concentration of cryoprotective chemicals and osmotic agents contained in the culture.
# Each nylon membrane containing embryogenic tissue was then transferred to one of two post-cryopreservation medium treatments. One treatment was DCR1 medium without ABA. The other treatment was DCR1 medium with 30 mg/l of ABA. The initial fresh weight (FW0) of the embryogenic tissue was measured aseptically at this time. There were 3 plates (each derived from an individual cryogenic vial) per treatment and cell line. The embryogenic cultures on membranes were transferred after 24 hours, and thereafter, every 14 days to a new plate of the same medium. The culture environment during post-cryopreservation recovery and growth was 23° C. in the dark. At 25 days after retrieval from cryogenic storage the final fresh weight (FWF) of the proliferating embryogenic culture was measured. The growth of the embryogenic tissue during the post-cryopreservation treatments was calculated as a percent increase in fresh weight relative to the initial fresh weight as follows: ((FWF−FW0)/FW0)*100.
# Each cell line was cryopreserved as follows. The liquid suspension cultures (7 days since the last subculture) were aseptically centrifuged at 1500 rpm for 10 minutes (400 g-force) to separate the embryogenic tissue from the liquid medium. The supernatant medium was removed from the embryogenic tissue. To the remaining volume of centrifuged embryogenic tissue, was added an equal volume of liquid DCR1 medium containing 0.8 molar sorbitol, so that the final sorbitol concentration was 0.4 molar. An Erlenmeyer flasks containing each suspension was incubated for 24 hours in the dark on a gyrotory shaker (100 rpm), and then placed on ice. The cryoprotective chemical DMSO was added to the chilled cultures at one time to bring the final concentration of DMSO to 10% (vol/vol). […]
# [6] = all six cell lines A1-A6, 30 mg/l ABA
structure (smiles),measurement,setting,value
"CC1=CC(=O)CC(C)(C)[C@@]1(O)/C=C/C(C)=C\C(=O)O [ABA, abscisic acid]",% Increase of total number of somatic embryos harvested over control without ABA,[1]; [6],332%
same,"Total Number of Somatic Embryos Harvested, total of the 6 cell lines",[1]; [6],588
same,Total Number of Somatic Embryos Harvested,[1]; cell line A1,404
same,Total Number of Somatic Embryos Harvested,[1]; cell line A2,82
same,Total Number of Somatic Embryos Harvested,[1]; cell line A3,0
same,Total Number of Somatic Embryos Harvested,[1]; cell line A4,43
same,Total Number of Somatic Embryos Harvested,[1]; cell line A5,15
same,Total Number of Somatic Embryos Harvested,[1]; cell line A6,44
same,% Increase of average culture fresh weight over control without ABA,[2]; 10 mg/l ABA,35%
same,% Increase of average culture fresh weight over control without ABA,[2]; 30 mg/l ABA,52%^a
same,"Mean Culture Fresh Weight, average of cell lines",[2]; 10 mg/l ABA,1.86 g
same,"Mean Culture Fresh Weight, average of cell lines",[2]; 30 mg/l ABA,2.10^a g
same,Mean Culture Fresh Weight,"[2]; cell line E-117, 10 mg/l ABA",0.38^a g
same,Mean Culture Fresh Weight,"[2]; cell line E-117, 30 mg/l ABA",0.33 g
same,Mean fresh weight higher than control treatment without ABA,"[2]; cell line G-05, 10 mg/l ABA",52%
same,Mean Culture Fresh Weight,"[2]; cell line G-05, 10 mg/l ABA",3.82^a g
same,Mean fresh weight higher than control treatment without ABA,"[2]; cell line G-05, 30 mg/l ABA",48%
same,Mean Culture Fresh Weight,"[2]; cell line G-05, 30 mg/l ABA",3.73 g
same,Mean Culture Fresh Weight,"[2]; cell line K-12, 10 mg/l ABA",0.55 g
same,Mean Culture Fresh Weight,"[2]; cell line K-12, 30 mg/l ABA",1.09^a g
same,Mean Culture Fresh Weight,"[2]; cell line O-72, 10 mg/l ABA",0.09 g
same,Mean Culture Fresh Weight,"[2]; cell line O-72, 30 mg/l ABA",0.10^a g
same,Mean Culture Fresh Weight,"[3]; cell line AA-24, 10 mg/l ABA, 28 days after retrieval",5.22 g
same,Mean Culture Fresh Weight,"[3]; cell line AA-24, 30 mg/l ABA, 28 days after retrieval",5.45^a g
same,Mean Culture Fresh Weight,"[3]; cell line Q-01 (initiated and maintained with 10.0 mg/l ABA), 10 mg/l ABA, 28 days",2.91^b g
same,Mean Culture Fresh Weight,"[3]; cell line Q-01 (initiated and maintained with 10.0 mg/l ABA), 30 mg/l ABA, 28 days",3.81^ab g
same,Mean Culture Fresh Weight,"[3]; cell line Q-39 (initiated and maintained with 10.0 mg/l ABA), 10 mg/l ABA, 28 days",0.01 g
same,Mean Culture Fresh Weight,"[3]; cell line Q-39 (initiated and maintained with 10.0 mg/l ABA), 30 mg/l ABA, 28 days",0.17 g
same,Average Percent Increase in Fresh Weight,[4]; cell line B1,195%
same,Average Percent Increase in Fresh Weight,[4]; cell line B2,29%
same,Average Percent Increase in Fresh Weight,[4]; cell line B4,34%
same,"Additional Culture Growth on DCR1 + ABA, overall","[5]; Average and Increase lines, all ten cell lines, 30 mg/l ABA",yes
same,Increase of overall average percent increase in fresh weight on medium with ABA compared to medium without ABA,"[5]; all ten cell lines, 30 mg/l ABA",70%
same,"Average Percent Increase in Fresh Weight, average of all ten cell lines","[5]; average of cell lines A1-A6 and B1-B4, DCR1 + 30 mg/l ABA",2469%
same,Additional Culture Growth on DCR1 + ABA,[5]; cell line A1,yes
same,Average Percent Increase in Fresh Weight,"[5]; cell line A1, DCR1 + 30 mg/l ABA, 25 days after retrieval",270%
same,Additional Culture Growth on DCR1 + ABA,[5]; cell line A2,yes
same,Average Percent Increase in Fresh Weight,"[5]; cell line A2, DCR1 + 30 mg/l ABA, 25 days after retrieval",7484%
same,Additional Culture Growth on DCR1 + ABA,[5]; cell line A3,yes
same,Average Percent Increase in Fresh Weight,"[5]; cell line A3, DCR1 + 30 mg/l ABA, 25 days after retrieval",4065%
same,Total fresh weight of embryogenic tissue from three cryogenic vials,"[5]; cell line A3, medium with ABA (30 mg/l)",5.17 grams
same,Additional Culture Growth on DCR1 + ABA,[5]; cell line A4,yes
same,Average Percent Increase in Fresh Weight,"[5]; cell line A4, DCR1 + 30 mg/l ABA, 25 days after retrieval",1652%
same,Additional Culture Growth on DCR1 + ABA,[5]; cell line A5,yes
same,Average Percent Increase in Fresh Weight,"[5]; cell line A5, DCR1 + 30 mg/l ABA, 25 days after retrieval",6479%
same,Additional Culture Growth on DCR1 + ABA,[5]; cell line A6,yes
same,Average Percent Increase in Fresh Weight,"[5]; cell line A6, DCR1 + 30 mg/l ABA, 25 days after retrieval",1221%
same,Additional Culture Growth on DCR1 + ABA,[5]; cell line B1,no
same,Additional Culture Growth on DCR1 + ABA,[5]; cell line B2,yes
same,Additional Culture Growth on DCR1 + ABA,[5]; cell line B3,yes
same,Average Percent Increase in Fresh Weight,"[5]; cell line B3, DCR1 + 30 mg/l ABA, 26 days after retrieval",3259%
same,Additional Culture Growth on DCR1 + ABA,[5]; cell line B4,yes
